Source: article PMC5513091, “A novel Alzheimer’s disease drug candidate targeting inflammation and fatty acid metabolism” (Alzheimer's Research & Therapy, 2017)

Tested on: cortex metabolites
Assay: Metabolomic analysis of cortex
Type: in vivo, mice
Experimental: Metabolomic analyses were conducted at Metabolon (Durham, NC, USA) as described previously. For statistical analyses and data display, any missing values were assumed to be below the limits of detection and imputed with the compound minimum (minimum value imputation). An estimate of the FDR (Q value) was calculated to take into account the multiple comparisons that normally occur in metabolomics-based studies, with Q < 0.05 used as an indication of high confidence in a result. The MetaboAnalyst tool was used to generate heat maps.

Cc1ccc(N(/N=C/c2cccc(OC(F)(F)F)c2)C(=O)C(F)(F)F)c(C)c1 [CAD-31]
monoacylglycerols in brain (AD mice, only significant drug effect): an increase in monoacylglycerols
Long-chain fatty acids and monoacylglycerols in brain (WT mice): decreased
acetyl-CoA, ketone bodies, and acyl carnitines in brain (WT mice): increased
ergothioneine Fold Change (cortex, AD+31/AD, p-value 8.4373e-5): 0.57
N-acetylalanine Fold Change (cortex, AD+31/AD, p-value 0.0006): 0.84
glycerate Fold Change (cortex, AD+31/AD, p-value 0.0086): 0.65
2-oleoylglycerol (18:1) Fold Change (cortex, AD+31/AD, p-value 0.0105): 1.51
1-palmitoylglycerol (16:0) Fold Change (cortex, AD+31/AD, p-value 0.0153): 1.41
2-methylcitrate/homocitrate Fold Change (cortex, AD+31/AD, p-value 0.0221): 1.13
hypoxanthine Fold Change (cortex, AD+31/AD, p-value 0.0231): 0.89
N-acetylneuraminate Fold Change (cortex, AD+31/AD, p-value 0.0277): 0.85
2-palmitoylglycerol (16:0) Fold Change (cortex, AD+31/AD, p-value 0.031): 1.57
1-palmitoyl-GPG (16:0)* Fold Change (cortex, AD+31/AD, p-value 0.0317): 1.85
azelate (nonanedioate) Fold Change (cortex, AD+31/AD, p-value 0.0374): 0.73
ribose Fold Change (cortex, AD+31/AD, p-value 0.0378): 0.84
arachidate (20:0) Fold Change (cortex, AD+31/AD, p-value 0.0406): 1.47
N-delta-acetylornithine Fold Change (cortex, AD+31/AD, p-value 0.0407): 1.32
3-sulfo-nervonoyl-galactosylceramide (d18:1/24:1) Fold Change (cortex, AD+31/AD, p-value 0.0443): 1.08
1-oleoylglycerol (18:1) Fold Change (cortex, AD+31/AD, p-value 0.0513): 1.46
1-stearoyl-GPG (18:0) Fold Change (cortex, AD+31/AD, p-value 0.055): 1.87
N-acetylglutamate Fold Change (cortex, AD+31/AD, p-value 0.0559): 0.92
linoleoyl ethanolamide Fold Change (cortex, AD+31/AD, p-value 0.0645): 1.62
N-acetylglucosaminylasparagine Fold Change (cortex, AD+31/AD, p-value 0.0691): 0.92
tricosenoate (23:1) Fold Change (cortex, AD+31/AD, p-value 0.0711): 1.54
2'-deoxycytidine Fold Change (cortex, AD+31/AD, p-value 0.088): 0.85
nonadecanoate (19:0) Fold Change (cortex, AD+31/AD, p-value 0.0981): 1.35
palmitate (16:0) Fold Change (cortex, AD+31/AD, p-value 0.1021): 1.36
erucate (22:1n9) Fold Change (cortex, AD+31/AD, p-value 0.1047): 1.44
5-methylthioadenosine (MTA) Fold Change (cortex, AD+31/AD, p-value 0.1124): 1.12
stearate (18:0) Fold Change (cortex, AD+31/AD, p-value 0.1164): 1.35
eicosenoate (20:1) Fold Change (cortex, AD+31/AD, p-value 0.1281): 1.43
oleate/vaccenate (18:1) Fold Change (cortex, AD+31/AD, p-value 0.1397): 1.39
adrenate (22:4n6) Fold Change (cortex, AD+31/AD, p-value 0.1408): 1.56
1-oleoyl-2-linoleoyl-GPC (18:1/18:2)* Fold Change (cortex, AD+31/AD, p-value 0.1443): 1.12
glutamate, gamma-methyl ester Fold Change (cortex, AD+31/AD, p-value 0.157): 0.73
docosadienoate (22:2n6) Fold Change (cortex, AD+31/AD, p-value 0.1608): 1.38
beta-citrylglutamate Fold Change (cortex, AD+31/AD, p-value 0.1678): 1.19
methylphosphate Fold Change (cortex, AD+31/AD, p-value 0.1679): 1.13
pyroglutamine* Fold Change (cortex, AD+31/AD, p-value 0.1791): 1.11
glycerophosphoglycerol Fold Change (cortex, AD+31/AD, p-value 0.1865): 0.93
dihomo-linoleate (20:2n6) Fold Change (cortex, AD+31/AD, p-value 0.1892): 1.35
docosatrienoate (22:3n3) Fold Change (cortex, AD+31/AD, p-value 0.1893): 1.69
arabinose Fold Change (cortex, AD+31/AD, p-value 0.2015): 0.93
UDP-glucose Fold Change (cortex, AD+31/AD, p-value 0.209): 1.28
UDP-N-acetylglucosamine/galactosamine Fold Change (cortex, AD+31/AD, p-value 0.2104): 0.95
1-palmitoyl-2-gamma-linolenoyl-GPC (16:0/18:3n6)* Fold Change (cortex, AD+31/AD, p-value 0.213): 0.91
1-arachidonylglycerol (20:4) Fold Change (cortex, AD+31/AD, p-value 0.2257): 1.2
hippurate Fold Change (cortex, AD+31/AD, p-value 0.2339): 1.5
mead acid (20:3n9) Fold Change (cortex, AD+31/AD, p-value 0.2367): 1.39
2-hydroxydecanoate Fold Change (cortex, AD+31/AD, p-value 0.2531): 0.84
glycerol 3-phosphate Fold Change (cortex, AD+31/AD, p-value 0.2532): 0.91
10-nonadecenoate (19:1n9) Fold Change (cortex, AD+31/AD, p-value 0.2636): 1.26
methionine Fold Change (cortex, AD+31/AD, p-value 0.2665): 1.1
1-docosahexaenoylglycerol (22:6) Fold Change (cortex, AD+31/AD, p-value 0.2822): 1.21
3-hydroxy-3-methylglutarate Fold Change (cortex, AD+31/AD, p-value 0.2908): 0.95
anserine Fold Change (cortex, AD+31/AD, p-value 0.2924): 1.14
N-formylmethionine Fold Change (cortex, AD+31/AD, p-value 0.3078): 0.94
3-hydroxybutyrylcarnitine (2) Fold Change (cortex, AD+31/AD, p-value 0.3124): 1.37
acetylphosphate Fold Change (cortex, AD+31/AD, p-value 0.3359): 0.91
1-methylimidazoleacetate Fold Change (cortex, AD+31/AD, p-value 0.3448): 0.9
N-acetylmethionine Fold Change (cortex, AD+31/AD, p-value 0.3576): 0.96
arachidonoyl ethanolamide Fold Change (cortex, AD+31/AD, p-value 0.3632): 1.06
deoxycarnitine Fold Change (cortex, AD+31/AD, p-value 0.3877): 0.94
palmitoylcholine Fold Change (cortex, AD+31/AD, p-value 0.42): 1.09
putrescine Fold Change (cortex, AD+31/AD, p-value 0.4207): 1.08
adenosine 5'-diphosphoribose (ADP-ribose) Fold Change (cortex, AD+31/AD, p-value 0.4258): 0.94
margarate (17:0) Fold Change (cortex, AD+31/AD, p-value 0.4323): 1.24
phenol sulfate Fold Change (cortex, AD+31/AD, p-value 0.4423): 1.28
acetylcarnitine Fold Change (cortex, AD+31/AD, p-value 0.4578): 1.25
lactate Fold Change (cortex, AD+31/AD, p-value 0.4961): 1.08
acetyl CoA Fold Change (cortex, AD+31/AD, p-value 0.4998): 1.33
3-hydroxybutyrate (BHBA) Fold Change (cortex, AD+31/AD, p-value 0.5074): 1.29
2-hydroxystearate Fold Change (cortex, AD+31/AD, p-value 0.5156): 1.2
gamma-glutamylhistidine Fold Change (cortex, AD+31/AD, p-value 0.5232): 0.9
gulonate* Fold Change (cortex, AD+31/AD, p-value 0.5547): 0.96
1-oleoyl-2-arachidonoyl-GPI (18:1/20:4) * Fold Change (cortex, AD+31/AD, p-value 0.5635): 1.02
6-phosphogluconate Fold Change (cortex, AD+31/AD, p-value 0.6142): 0.86
adenosine 2'-monophosphate (2'-AMP) Fold Change (cortex, AD+31/AD, p-value 0.6144): 1.09
glucosamine-6-phosphate Fold Change (cortex, AD+31/AD, p-value 0.6542): 1.06
1-palmitoyl-2-palmitoleoyl-GPC (16:0/16:1)* Fold Change (cortex, AD+31/AD, p-value 0.6549): 0.98
1-(1-enyl-stearoyl)-2-arachidonoyl-GPE (P-18:0/20:4)* Fold Change (cortex, AD+31/AD, p-value 0.6588): 1.01
mannose Fold Change (cortex, AD+31/AD, p-value 0.6613): 0.9
UDP-galactose Fold Change (cortex, AD+31/AD, p-value 0.6737): 1.03
phosphoethanolamine Fold Change (cortex, AD+31/AD, p-value 0.6749): 0.98
sphingomyelin (d18:1/18:1, d18:2/18:0) Fold Change (cortex, AD+31/AD, p-value 0.6798): 1.03
sedoheptulose-7-phosphate Fold Change (cortex, AD+31/AD, p-value 0.7025): 0.98
1-stearoyl-GPC (18:0) Fold Change (cortex, AD+31/AD, p-value 0.7211): 0.94
1-palmitoyl-2-oleoyl-GPS (16:0/18:1) Fold Change (cortex, AD+31/AD, p-value 0.7273): 1.01
glucose 6-phosphate Fold Change (cortex, AD+31/AD, p-value 0.7454): 0.99
prolylglycine Fold Change (cortex, AD+31/AD, p-value 0.7821): 0.99
glycerophosphoethanolamine Fold Change (cortex, AD+31/AD, p-value 0.7927): 1.02
succinylcarnitine Fold Change (cortex, AD+31/AD, p-value 0.8024): 0.95
glutamate Fold Change (cortex, AD+31/AD, p-value 0.8146): 0.99
N-acetyl-glucosamine 1-phosphate Fold Change (cortex, AD+31/AD, p-value 0.868): 0.98
O-methyltyrosine Fold Change (cortex, AD+31/AD, p-value 0.8778): 0.98
galactose 1-phosphate Fold Change (cortex, AD+31/AD, p-value 0.8947): 1.05
17-methylstearate Fold Change (cortex, AD+31/AD, p-value 0.9061): 1
1-stearoyl-2-oleoyl-GPI (18:0/18:1)* Fold Change (cortex, AD+31/AD, p-value 0.9089): 1
lysine Fold Change (cortex, AD+31/AD, p-value 0.9193): 1
fructose-6-phosphate Fold Change (cortex, AD+31/AD, p-value 0.9322): 1.01
coenzyme A Fold Change (cortex, AD+31/AD, p-value 0.937): 1.03
oleoyl-oleoyl-glycerol (18:1/18:1) [2]* Fold Change (cortex, AD+31/AD, p-value 0.9411): 1
